{"source": "patent US11613531B2", "about": "“Inhibitors of RHO associated coiled-coil containing protein kinase” (Kadmon Corporation, LLC, priority 2017, dated 2023)", "data": [{"molecular_target": "Recombinant ROCK2 (amino acids 1-552) (Homo sapiens (Human), UniProt O75116)", "sequence (O75116 1-552)": "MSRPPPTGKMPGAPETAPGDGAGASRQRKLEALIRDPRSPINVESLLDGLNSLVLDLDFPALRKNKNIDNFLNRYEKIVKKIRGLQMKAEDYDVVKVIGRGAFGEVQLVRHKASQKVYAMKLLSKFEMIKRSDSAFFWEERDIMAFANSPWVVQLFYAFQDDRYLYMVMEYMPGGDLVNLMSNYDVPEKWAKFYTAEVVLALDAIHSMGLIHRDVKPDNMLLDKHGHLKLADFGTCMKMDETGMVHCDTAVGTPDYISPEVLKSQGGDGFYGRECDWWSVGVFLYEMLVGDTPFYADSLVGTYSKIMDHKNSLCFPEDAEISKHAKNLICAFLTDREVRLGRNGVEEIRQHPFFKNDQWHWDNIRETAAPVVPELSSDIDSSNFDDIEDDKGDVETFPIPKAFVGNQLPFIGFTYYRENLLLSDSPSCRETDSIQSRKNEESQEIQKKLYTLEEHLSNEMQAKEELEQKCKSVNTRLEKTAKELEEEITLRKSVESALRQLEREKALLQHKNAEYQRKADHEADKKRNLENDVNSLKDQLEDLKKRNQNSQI", "experiment": "Z′-Lyte kinase assay, ROCK2", "format": "biochemical", "conditions": "3 μM compound; read-out: ROCK2 % inh. @ [conc]", "in_short": "(§1)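 IC50s derive from nonlinear curve fits over a 9-point, 2-fold dilution series, with single-point inhibition at 1 μM expressed relative to DMSO. Activity of truncated human ROCK1 (residues 1-535) and ROCK2 (residues 1-552) measured with the Z′-Lyte kinase format.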", "units": {"inhibition at 3 µM": "%"}, "values": [{"smiles": "CC1CCN(c2nccc(Nc3ccc4[nH]ncc4c3)n2)CCN1", "note": "(stereo not shown) [Example 57, N-(2-(5-methyl-1,4-diazepan-1-yl)pyrimidin-4-yl)-1H-indazol-5-amine]", "inhibition at 3 µM": 93.4}, {"smiles": "CCC1CN(c2nccc(Nc3ccc4[nH]ncc4c3)n2)CCN1", "note": "(stereo not shown) [Example 58, N-(2-(3-ethylpiperazin-1-yl)pyrimidin-4-yl)-1H-indazol-5-amine]", "inhibition at 3 µM": 98.8}, {"smiles": "CC(C)C1CN(c2nccc(Nc3ccc4[nH]ncc4c3)n2)CCN1", "note": "(stereo not shown) [Example 59, N-(2-(3-isopropylpiperazin-1-yl)pyrimidin-4-yl)-1H-indazol-5-amine]", "inhibition at 3 µM": 100}, {"smiles": "CCC1CCN(c2nccc(Nc3ccc4[nH]ncc4c3)n2)CCN1", "note": "(stereo not shown) [Example 60, N-(2-(5-ethyl-1,4-diazepan-1-yl)pyrimidin-4-yl)-1H-indazol-5-amine]", "inhibition at 3 µM": 100}, {"smiles": "CC(C)C1CCN(c2nccc(Nc3ccc4[nH]ncc4c3)n2)CCN1", "note": "(stereo not shown) [Example 61, N-(2-(5-isopropyl-1,4-diazepan-1-yl)pyrimidin-4-yl)-1H-indazol-5-amine]", "inhibition at 3 µM": 100}, {"smiles": "CCC1CN(c2nccc(Nc3ccc4[nH]ncc4c3)n2)CCCN1", "note": "(stereo not shown) [Example 62, N-(2-(3-ethyl-1,4-diazepan-1-yl)pyrimidin-4-yl)-1H-indazol-5-amine]", "inhibition at 3 µM": 100}, {"smiles": "c1ccc(C2CCN(c3nccc(Nc4ccc5[nH]ncc5c4)n3)CCN2)cc1", "note": "(stereo not shown) [Example 63, N-(2-(5-phenyl-1,4-diazepan-1-yl)pyrimidin-4-yl)-1H-indazol-5-amine]", "inhibition at 3 µM": 100}]}, {"molecular_target": "Recombinant ROCK2 (amino acids 1-552) (Homo sapiens (Human), UniProt O75116)", "experiment": "Z′-Lyte kinase assay, ROCK2", "format": "biochemical", "conditions": "9 points 2-fold serial dilution", "in_short": "as §1", "units": {"IC50": "µM"}, "values": [{"smiles": "CCC1CN(c2nccc(Nc3ccc4[nH]ncc4c3)n2)CCN1", "note": "(stereo not shown) [Example 58, N-(2-(3-ethylpiperazin-1-yl)pyrimidin-4-yl)-1H-indazol-5-amine]", "IC50": 0.144}, {"smiles": "CC(C)C1CN(c2nccc(Nc3ccc4[nH]ncc4c3)n2)CCN1", "note": "(stereo not shown) [Example 59, N-(2-(3-isopropylpiperazin-1-yl)pyrimidin-4-yl)-1H-indazol-5-amine]", "IC50": 0.902}, {"smiles": "CCC1CCN(c2nccc(Nc3ccc4[nH]ncc4c3)n2)CCN1", "note": "(stereo not shown) [Example 60, N-(2-(5-ethyl-1,4-diazepan-1-yl)pyrimidin-4-yl)-1H-indazol-5-amine]", "IC50": 0.45}, {"smiles": "CC(C)C1CCN(c2nccc(Nc3ccc4[nH]ncc4c3)n2)CCN1", "note": "(stereo not shown) [Example 61, N-(2-(5-isopropyl-1,4-diazepan-1-yl)pyrimidin-4-yl)-1H-indazol-5-amine]", "IC50": "> 1"}, {"smiles": "CCC1CN(c2nccc(Nc3ccc4[nH]ncc4c3)n2)CCCN1", "note": "(stereo not shown) [Example 62, N-(2-(3-ethyl-1,4-diazepan-1-yl)pyrimidin-4-yl)-1H-indazol-5-amine]", "IC50": 0.177}, {"smiles": "c1ccc(C2CCN(c3nccc(Nc4ccc5[nH]ncc5c4)n3)CCN2)cc1", "note": "(stereo not shown) [Example 63, N-(2-(5-phenyl-1,4-diazepan-1-yl)pyrimidin-4-yl)-1H-indazol-5-amine]", "IC50": "> 1"}]}, {"tested_on": "ppMlc (T18/S19) levels in A7R5 cells", "experiment": "A7R5 in-cell ELISA (pMLC)", "format": "cell-based, Rat", "conditions": "Rattus norvegicus, A7R5, A7R5 cells, 10 μM compound; read-out: pMLC % inh A7R5 @ [conc]", "in_short": "(§2)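 Cellular IC50 came from a nonlinear regression fit of ppMlc (T18/S19) signal, read by colorimetric in-cell ELISA on fixed cells. Rat A7R5 aortic smooth muscle cells had been exposed for 90 min to compounds in 9-point 2-fold serial dilution, 24 h after seeding.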", "units": {"inhibition at 10 µM": "%"}, "values": [{"smiles": "CC1CCN(c2nccc(Nc3ccc4[nH]ncc4c3)n2)CCN1", "note": "(stereo not shown) [Example 57, N-(2-(5-methyl-1,4-diazepan-1-yl)pyrimidin-4-yl)-1H-indazol-5-amine]", "inhibition at 10 µM": 60.6}]}, {"tested_on": "ppMlc (T18/S19) levels in A7R5 cells", "experiment": "A7R5 in-cell ELISA (pMLC)", "format": "cell-based, Rat", "conditions": "Rattus norvegicus, A7R5, A7R5 cells, ppMlc (T18/S19)", "in_short": "as §2", "units": {"IC50": "nM"}, "values": [{"smiles": "CC1CCN(c2nccc(Nc3ccc4[nH]ncc4c3)n2)CCN1", "note": "(stereo not shown) [Example 57, N-(2-(5-methyl-1,4-diazepan-1-yl)pyrimidin-4-yl)-1H-indazol-5-amine]", "IC50": 1220}, {"smiles": "CCC1CN(c2nccc(Nc3ccc4[nH]ncc4c3)n2)CCN1", "note": "(stereo not shown) [Example 58, N-(2-(3-ethylpiperazin-1-yl)pyrimidin-4-yl)-1H-indazol-5-amine]", "IC50": 1080}, {"smiles": "CC(C)C1CN(c2nccc(Nc3ccc4[nH]ncc4c3)n2)CCN1", "note": "(stereo not shown) [Example 59, N-(2-(3-isopropylpiperazin-1-yl)pyrimidin-4-yl)-1H-indazol-5-amine]", "IC50": 4780}, {"smiles": "CCC1CCN(c2nccc(Nc3ccc4[nH]ncc4c3)n2)CCN1", "note": "(stereo not shown) [Example 60, N-(2-(5-ethyl-1,4-diazepan-1-yl)pyrimidin-4-yl)-1H-indazol-5-amine]", "IC50": 3440}, {"smiles": "CC(C)C1CCN(c2nccc(Nc3ccc4[nH]ncc4c3)n2)CCN1", "note": "(stereo not shown) [Example 61, N-(2-(5-isopropyl-1,4-diazepan-1-yl)pyrimidin-4-yl)-1H-indazol-5-amine]", "IC50": 8170}, {"smiles": "CCC1CN(c2nccc(Nc3ccc4[nH]ncc4c3)n2)CCCN1", "note": "(stereo not shown) [Example 62, N-(2-(3-ethyl-1,4-diazepan-1-yl)pyrimidin-4-yl)-1H-indazol-5-amine]", "IC50": 1300}, {"smiles": "c1ccc(C2CCN(c3nccc(Nc4ccc5[nH]ncc5c4)n3)CCN2)cc1", "note": "(stereo not shown) [Example 63, N-(2-(5-phenyl-1,4-diazepan-1-yl)pyrimidin-4-yl)-1H-indazol-5-amine]", "IC50": 25100}]}, {"molecular_target": "Recombinant ROCK1 (amino acids 1-535) (Homo sapiens (Human), UniProt Q13464)", "sequence (Q13464 1-535)": "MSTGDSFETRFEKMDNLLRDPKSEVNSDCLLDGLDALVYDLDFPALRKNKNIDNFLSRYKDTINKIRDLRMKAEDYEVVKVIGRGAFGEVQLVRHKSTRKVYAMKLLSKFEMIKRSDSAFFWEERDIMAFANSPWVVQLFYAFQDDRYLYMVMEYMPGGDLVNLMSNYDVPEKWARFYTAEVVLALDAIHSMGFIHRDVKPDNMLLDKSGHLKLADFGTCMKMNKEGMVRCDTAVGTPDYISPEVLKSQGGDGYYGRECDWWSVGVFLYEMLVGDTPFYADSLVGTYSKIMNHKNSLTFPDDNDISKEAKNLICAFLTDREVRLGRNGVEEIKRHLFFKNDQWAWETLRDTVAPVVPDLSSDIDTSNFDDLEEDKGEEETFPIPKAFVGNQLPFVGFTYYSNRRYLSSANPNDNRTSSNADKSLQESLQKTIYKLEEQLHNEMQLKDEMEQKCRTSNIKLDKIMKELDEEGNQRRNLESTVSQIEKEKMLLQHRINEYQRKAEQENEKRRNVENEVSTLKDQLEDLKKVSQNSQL", "experiment": "Z′-Lyte kinase assay, ROCK1", "format": "biochemical", "conditions": "3 μM compound; read-out: ROCK1 % inh. @ [conc]", "method": "(§3) Determination of Compound's ROCK Inhibitory Activity In Vitro (Z'Lyte Assay).\n(§4) Recombinant ROCK1 (amino acids 1-535) and ROCK2 (amino acids 1-552) proteins were purchased from ThermoFisher Scientific. Compound's activities were measured by Z′-lyte kinase kit (ThermoFisher Scientific) and IC50 was calculated\n(§5) In vitro activities for the compounds were measured with Z′-lyte kinase kit (ThermoFisher Scientific). The percent inhibition rate was calculated by normalizing the kinase activity value obtained with 1 μM compound treatment against DMSO control value and then applied to the formula, [1-(compound/DMSO)]×100%. IC50s were calculated using the nonlinear regression curve fit function of the GraphPad Prism software with kinase activities data measured with 9 points 2-fold serial dilution of compounds treatment. In cell pMLC IC50s were calculated with data obtained from A7R5 cell experiments. A7R5 cells were treated with 9 points 2-fold serial dilution of compounds and ppMlc (T18/S19) levels were determined to calculate cellular IC50 values of the compounds using the nonlinear regression curve fit function of the GraphPad Prism software. NIH3T3 cells stably expressing ACTA2-promoter-driven-luciferase were applied to measure ROCK compounds functional IC50s in cells. Cells were plated in 96 well plates to confluence and treated with 9 points serial dilution of compounds in combination with TGFβ1 for 24 hr. Luciferase activities were measured and compound's IC50s were calculated using the nonlinear regression curve fit function of the GraphPad Prism software.", "units": {"inhibition at 3 µM": "%"}, "values": [{"smiles": "CC1CCN(c2nccc(Nc3ccc4[nH]ncc4c3)n2)CCN1", "note": "(stereo not shown) [Example 57, N-(2-(5-methyl-1,4-diazepan-1-yl)pyrimidin-4-yl)-1H-indazol-5-amine]", "inhibition at 3 µM": 17.4}, {"smiles": "CCC1CN(c2nccc(Nc3ccc4[nH]ncc4c3)n2)CCN1", "note": "(stereo not shown) [Example 58, N-(2-(3-ethylpiperazin-1-yl)pyrimidin-4-yl)-1H-indazol-5-amine]", "inhibition at 3 µM": 99}, {"smiles": "CC(C)C1CN(c2nccc(Nc3ccc4[nH]ncc4c3)n2)CCN1", "note": "(stereo not shown) [Example 59, N-(2-(3-isopropylpiperazin-1-yl)pyrimidin-4-yl)-1H-indazol-5-amine]", "inhibition at 3 µM": 100}, {"smiles": "CCC1CCN(c2nccc(Nc3ccc4[nH]ncc4c3)n2)CCN1", "note": "(stereo not shown) [Example 60, N-(2-(5-ethyl-1,4-diazepan-1-yl)pyrimidin-4-yl)-1H-indazol-5-amine]", "inhibition at 3 µM": 100}, {"smiles": "CC(C)C1CCN(c2nccc(Nc3ccc4[nH]ncc4c3)n2)CCN1", "note": "(stereo not shown) [Example 61, N-(2-(5-isopropyl-1,4-diazepan-1-yl)pyrimidin-4-yl)-1H-indazol-5-amine]", "inhibition at 3 µM": 100}, {"smiles": "CCC1CN(c2nccc(Nc3ccc4[nH]ncc4c3)n2)CCCN1", "note": "(stereo not shown) [Example 62, N-(2-(3-ethyl-1,4-diazepan-1-yl)pyrimidin-4-yl)-1H-indazol-5-amine]", "inhibition at 3 µM": 100}, {"smiles": "c1ccc(C2CCN(c3nccc(Nc4ccc5[nH]ncc5c4)n3)CCN2)cc1", "note": "(stereo not shown) [Example 63, N-(2-(5-phenyl-1,4-diazepan-1-yl)pyrimidin-4-yl)-1H-indazol-5-amine]", "inhibition at 3 µM": 100}]}, {"molecular_target": "Recombinant ROCK1 (amino acids 1-535) (Homo sapiens (Human), UniProt Q13464)", "experiment": "Z′-Lyte kinase assay, ROCK1", "format": "biochemical", "conditions": "9 points 2-fold serial dilution", "method": "as §3, §4, §5", "units": {"IC50": "µM"}, "values": [{"smiles": "CCC1CN(c2nccc(Nc3ccc4[nH]ncc4c3)n2)CCN1", "note": "(stereo not shown) [Example 58, N-(2-(3-ethylpiperazin-1-yl)pyrimidin-4-yl)-1H-indazol-5-amine]", "IC50": 0.192}, {"smiles": "CC(C)C1CN(c2nccc(Nc3ccc4[nH]ncc4c3)n2)CCN1", "note": "(stereo not shown) [Example 59, N-(2-(3-isopropylpiperazin-1-yl)pyrimidin-4-yl)-1H-indazol-5-amine]", "IC50": 0.671}, {"smiles": "CCC1CCN(c2nccc(Nc3ccc4[nH]ncc4c3)n2)CCN1", "note": "(stereo not shown) [Example 60, N-(2-(5-ethyl-1,4-diazepan-1-yl)pyrimidin-4-yl)-1H-indazol-5-amine]", "IC50": 0.66}, {"smiles": "CC(C)C1CCN(c2nccc(Nc3ccc4[nH]ncc4c3)n2)CCN1", "note": "(stereo not shown) [Example 61, N-(2-(5-isopropyl-1,4-diazepan-1-yl)pyrimidin-4-yl)-1H-indazol-5-amine]", "IC50": "> 1"}, {"smiles": "CCC1CN(c2nccc(Nc3ccc4[nH]ncc4c3)n2)CCCN1", "note": "(stereo not shown) [Example 62, N-(2-(3-ethyl-1,4-diazepan-1-yl)pyrimidin-4-yl)-1H-indazol-5-amine]", "IC50": 0.179}, {"smiles": "c1ccc(C2CCN(c3nccc(Nc4ccc5[nH]ncc5c4)n3)CCN2)cc1", "note": "(stereo not shown) [Example 63, N-(2-(5-phenyl-1,4-diazepan-1-yl)pyrimidin-4-yl)-1H-indazol-5-amine]", "IC50": "> 1"}]}]}
